Test results published in ChEMBL document CHEMBL3603745, “Synthesis of ciprofloxacin dimers for evaluation of bacterial permeability in atypical chemical space” (Bioorg Med Chem Lett, 2015).
In brackets after ≈: the same amount, converted by molar mass.

Legend:
Escherichia coli [1] = assay: Antibacterial activity against tolC-deficient Escherichia coli JW5503-1 by broth microdilution method; format: functional
Escherichia coli [2] = assay: Antibacterial activity against wild type Escherichia coli ATCC 25922 by broth microdilution method; format: functional
Pseudomonas aeruginosa [3] = assay: Antibacterial activity against mexX, mexB deficient Pseudomonas aeruginosa NB52023-CDK005 harboring gyrAT83I by broth microdilution method; format: functional
Escherichia coli [4] = assay: Antibacterial activity against wild type Escherichia coli BW5328/pAH69 by broth microdilution method; format: functional
[5] = Inhibition of Escherichia coli recombinant gyrase A2B2 assessed as reduction of pHOT-1 supercoiling after 90 mins
Escherichia coli [6] = assay: Antibacterial activity against Escherichia coli imp-4213 by broth microdilution method; format: functional
Staphylococcus aureus [7] = assay: Antibacterial activity against fluoroquinolone-resistant Staphylococcus aureus NB01006-AVR005 harboring gyrA S84L, parC S80F, parE E471K by broth microdilution method; format: functional
Pseudomonas aeruginosa [8] = assay: Antibacterial activity against mexX, mexB deficient Pseudomonas aeruginosa NB52023-CDK006 harboring gyrAT83I and parC S87L by broth microdilution method; format: functional
Pseudomonas aeruginosa [9] = assay: Antibacterial activity against Pseudomonas aeruginosa K1542 deficient with mexX, mexB by broth microdilution method; format: functional
Pseudomonas aeruginosa [10] = assay: Antibacterial activity against wild type Pseudomonas aeruginosa PAO1 by broth microdilution method; format: functional
Escherichia coli [11] = assay: Antibacterial activity against fluoroquinolone-resistant Escherichia coli CH10 harboring gyrA S83L D87N, parC S80I E84G, AcrA+ by broth microdilution method; format: functional
Escherichia coli [12] = assay: Antibacterial activity against tolC-deficient Escherichia coli NB27005-CDY0039 expressing gyrA S83L […], parC S80I mutant by broth microdilution method; format: functional
Staphylococcus aureus [13] = assay: Antibacterial activity against wild type Staphylococcus aureus ATCC 29213 by broth microdilution method; format: functional
Staphylococcus aureus [14] = assay: Antibacterial activity against wild type methicillin-susceptible Staphylococcus aureus ATCC 49951 by broth microdilution method; format: functional
Escherichia coli [15] = assay: Antibacterial activity against wild type Escherichia coli MC4100 by broth microdilution method; format: functional

SMILES | MIC (Escherichia coli [1]) [µg/mL] | MIC (Escherichia coli [2]) [µg/mL] | MIC (Pseudomonas aeruginosa [3]) [µg/mL] | MIC (Escherichia coli [4]) [µg/mL] | IC50 [5] [nM] | MIC (Escherichia coli [6]) [µg/mL] | MIC (Staphylococcus aureus [7]) [µg/mL] | MIC (Pseudomonas aeruginosa [8]) [µg/mL] | MIC (Pseudomonas aeruginosa [9]) [µg/mL] | MIC (Pseudomonas aeruginosa [10]) [µg/mL] | MIC (Escherichia coli [11]) [µg/mL] | MIC (Escherichia coli [12]) [µg/mL] | MIC (Staphylococcus aureus [13]) [µg/mL] | MIC (Staphylococcus aureus [14]) [µg/mL] | MIC (Escherichia coli [15]) [µg/mL]
C=CCN1CCN(c2cc3c(cc2F)c(=O)c(C(=O)O)cn3C2CC2)CC1 | ≤ 0.03 | ≤ 0.03 | 4 (≈ 10.8 µM) | 0.06 (≈ 0.162 µM) | 580 | ≤ 0.03 | 32 (≈ 86.2 µM) | 32 (≈ 86.2 µM) | 0.25 (≈ 0.673 µM) | 1 (≈ 2.69 µM) | > 32 | 2 (≈ 5.38 µM) | 0.125 (≈ 0.337 µM) | 0.125 (≈ 0.337 µM) | 0.06 (≈ 0.162 µM)
O=CN1CCN(c2cc3c(cc2F)c(=O)c(C(=O)O)cn3C2CC2)CC1 | ≤ 0.03 | 0.125 (≈ 0.348 µM) | 16 (≈ 44.5 µM) | 0.125 (≈ 0.348 µM) | 250 | ≤ 0.03 | 32 (≈ 89 µM) | 32 (≈ 89 µM) | 0.25 (≈ 0.696 µM) | 2 (≈ 5.57 µM) | > 32 | 4 (≈ 11.1 µM) | 0.25 (≈ 0.696 µM) | 0.25 (≈ 0.696 µM) | 0.25 (≈ 0.696 µM)
O=C(O)c1cn(C2CC2)c2cc(N3CCN(Cc4cccc(CN5CCN(c6cc7c(cc6F)c(=O)c(C(=O)O)cn7C6CC6)CC5)c4)CC3)c(F)cc2c1=O | 0.06 (≈ 0.0784 µM) | 1 (≈ 1.31 µM) | > 32 | 2 (≈ 2.61 µM) | 1180 | ≤ 0.03 | 32 (≈ 41.8 µM) | > 32 | 8 (≈ 10.5 µM) | 32 (≈ 41.8 µM) | > 32 | > 32 | 0.5 (≈ 0.654 µM) | 0.25 (≈ 0.327 µM) | 2 (≈ 2.61 µM)
O=C(O)c1cn(C2CC2)c2cc(N3CCN(CCOCCOCCOCCOCCOCCN4CCN(c5cc6c(cc5F)c(=O)c(C(=O)O)cn6C5CC5)CC4)CC3)c(F)cc2c1=O | 0.125 (≈ 0.138 µM) | 2 (≈ 2.2 µM) | > 32 | 2 (≈ 2.2 µM) | 10000 | 0.125 (≈ 0.138 µM) | > 32 | > 32 | 8 (≈ 8.8 µM) | 32 (≈ 35.2 µM) | > 32 | > 32 | 8 (≈ 8.8 µM) | 2 (≈ 2.2 µM) | 4 (≈ 4.4 µM)
O=C(O)c1cn(C2CC2)c2cc(N3CCN(CCOCCOCCOCCOCCOCCOCCOCCN4CCN(c5cc6c(cc5F)c(=O)c(C(=O)O)cn6C5CC5)CC4)CC3)c(F)cc2c1=O | 0.125 (≈ 0.125 µM) | 2 (≈ 2.01 µM) | > 32 | 4 (≈ 4.01 µM) | 1380 | 4 (≈ 4.01 µM) | > 32 | > 32 | 16 (≈ 16 µM) | 16 (≈ 16 µM) | > 32 | 8 (≈ 8.02 µM) | 4 (≈ 4.01 µM) | 1 (≈ 1 µM) | 4 (≈ 4.01 µM)
Cc1cc(C(=O)N2CCN(c3cc4c(cc3F)c(=O)c(C(=O)O)cn4C3CC3)CC2)cc(C(=O)N2CCN(c3cc4c(cc3F)c(=O)c(C(=O)O)cn4C3CC3)CC2)c1 | ≤ 0.03 | 0.5 (≈ 0.62 µM) | 8 (≈ 9.92 µM) | 0.5 (≈ 0.62 µM) | 1160 | ≤ 0.03 | > 32 | > 32 | 0.5 (≈ 0.62 µM) | 4 (≈ 4.96 µM) | > 32 | 16 (≈ 19.8 µM) | 1 (≈ 1.24 µM) | 0.5 (≈ 0.62 µM) | 0.5 (≈ 0.62 µM)
O=C(O)c1cn(C2CC2)c2cc(N3CCN(C(=O)c4cccc(C(=O)N5CCN(c6cc7c(cc6F)c(=O)c(C(=O)O)cn7C6CC6)CC5)c4)CC3)c(F)cc2c1=O | 0.125 (≈ 0.158 µM) | > 32 | > 32 | > 32 | 110 | 0.06 (≈ 0.0757 µM) | > 32 | > 32 | > 32 | > 32 | > 32 | > 32 | 2 (≈ 2.52 µM) | 0.25 (≈ 0.315 µM) | > 32
O=C(NCC(=O)N1CCN(c2cc3c(cc2F)c(=O)c(C(=O)O)cn3C2CC2)CC1)c1cccc(C(=O)NCC(=O)N2CCN(c3cc4c(cc3F)c(=O)c(C(=O)O)cn4C3CC3)CC2)c1 | 0.25 (≈ 0.276 µM) | 1 (≈ 1.1 µM) | 32 (≈ 35.3 µM) | 2 (≈ 2.21 µM) | 3200 | 0.25 (≈ 0.276 µM) | > 32 | > 32 | 2 (≈ 2.21 µM) | 16 (≈ 17.6 µM) | > 32 | > 32 | > 32 | 1 (≈ 1.1 µM) | 2 (≈ 2.21 µM)
O=C(NCCCCC(=O)N1CCN(c2cc3c(cc2F)c(=O)c(C(=O)O)cn3C2CC2)CC1)c1cccc(C(=O)NCCCCC(=O)N2CCN(c3cc4c(cc3F)c(=O)c(C(=O)O)cn4C3CC3)CC2)c1 | 0.5 (≈ 0.505 µM) | 16 (≈ 16.1 µM) | > 32 | 16 (≈ 16.1 µM) | 9970 | 2 (≈ 2.02 µM) | > 32 | > 32 | > 32 | > 32 | > 32 | > 32 | > 32 | 4 (≈ 4.04 µM) | 16 (≈ 16.1 µM)
C=CCCC(=O)N1CCN(c2cc3c(cc2F)c(=O)c(C(=O)O)cn3C2CC2)CC1 | ≤ 0.03 | 0.5 (≈ 1.21 µM) | > 32 | 1 (≈ 2.42 µM) | 760 | ≤ 0.03 | 32 (≈ 77.4 µM) | > 32 | 2 (≈ 4.84 µM) | 16 (≈ 38.7 µM) | > 32 | 2 (≈ 4.84 µM) | 0.25 (≈ 0.605 µM) | 0.25 (≈ 0.605 µM) | 1 (≈ 2.42 µM)
CC(C)(C)OC(=O)NCCCCCC(=O)N1CCN(c2cc3c(cc2F)c(=O)c(C(=O)O)cn3C2CC2)CC1 | 0.06 (≈ 0.11 µM) | > 32 | > 32 | > 32 | 4350 | 0.25 (≈ 0.459 µM) | > 32 | > 32 | > 32 | > 32 | > 32 | 2 (≈ 3.67 µM) | 2 (≈ 3.67 µM) | 2 (≈ 3.67 µM) | > 32
O=C(O)c1cn(C2CC2)c2cc(N3CCN(CCOCCOCCOc4ccc5ccc(=O)oc5c4)CC3)c(F)cc2c1=O | ≤ 0.03 | 1 (≈ 1.65 µM) | > 32 | 1 (≈ 1.65 µM) | 6670 | 0.125 (≈ 0.206 µM) | > 32 | > 32 | 8 (≈ 13.2 µM) | 16 (≈ 26.3 µM) | > 32 | > 32 | 2 (≈ 3.29 µM) | 2 (≈ 3.29 µM) | 2 (≈ 3.29 µM)
O=C(O)c1cn(C2CC2)c2cc(N3CCNCC3)c(F)cc2c1=O [CIPROFLOXACIN] | ≤ 0.03 | ≤ 0.03 | – | ≤ 0.03 | 460 | ≤ 0.03 | > 32 | 4 (≈ 12.1 µM) | 0.06 (≈ 0.181 µM) | – | > 32 | – | 0.5 (≈ 1.51 µM) | 0.25 (≈ 0.754 µM) | ≤ 0.03
CC[C@H]1OC(=O)[C@H](C)[C@@H](O[C@H]2C[C@@](C)(OC)[C@@H](O)[C@H](C)O2)[C@H](C)[C@@H](O[C@@H]2O[C@H](C)C[C@H](N(C)C)[C@H]2O)[C@](C)(O)C[C@@H](C)C(=O)[C@H](C)[C@@H](O)[C@]1(C)O [ERYTHROMYCIN] | 2 (≈ 2.73 µM) | > 32 | > 32 | 32 (≈ 43.6 µM) | – | 2 (≈ 2.73 µM) | 0.5 (≈ 0.681 µM) | > 32 | > 32 | > 32 | > 32 | 2 (≈ 2.73 µM) | 0.25 (≈ 0.341 µM) | 0.25 (≈ 0.341 µM) | > 32
